Calls of active or inactive are those of the source. No cut-off for these calls is given here.
Tests used:
[1] = Antioxidant activity assessed as DPPH free radical scavenging activity after 30 mins; assay type: functional
Leishmania donovani [2] = test: Antileishmanial activity against Leishmania donovani NHOM/IN/80/DD8 promastigote forms assessed as reduction in parasite growth after 72 hrs by MTT assay; assay type: functional; conditions: NHOM/IN/80/DD8, 72 h
Leishmania donovani [3] = test: Antileishmanial activity against Leishmania donovani NHOM/IN/80/DD8 promastigote forms assessed as reduction in parasite growth up to 500 uM after 72 hrs by MTT assay; assay type: functional
HeLa = test: Cytotoxicity against human HeLa cells at 500 ug/ml after 72 hrs by MTT assay; assay type: cell-based

SMILES | IC50 [1] | IC50 (Leishmania donovani [2]) | Activity (Leishmania donovani [3]) | Activity (HeLa)
CCc1ccc(/C=N/n2c(S)nnc2-c2cnccn2)cc1 | 47.7 µM | 201 µM | – | –
FC(F)(F)c1ccc(NC(=S)Nn2c(S)nnc2-c2cnccn2)cc1 | 58.8 µM | 289 µM | – | –
Fc1ccc(NC(=S)Nn2c(S)nnc2-c2cnccn2)cc1 | 69.2 µM | 322 µM | – | –
Fc1cccc(NC(=S)Nn2c(S)nnc2-c2cnccn2)c1 | 14 µM | 287 µM | – | –
O=[N+]([O-])c1cccc(/C=N/n2c(S)nnc2-c2cnccn2)c1 | 72.4 µM | 347 µM | – | –
CCOc1ccc(/C=N/n2c(S)nnc2-c2cnccn2)cc1OC | 58.8 µM | 190 µM | – | –
S=C(Nc1ccc(Cl)cc1Cl)Nn1c(S)nnc1-c1cnccn1 | 58.9 µM | 79 µM | – | –
Oc1ccc2ccccc2c1/C=N/n1c(S)nnc1-c1cnccn1 | 69.2 µM | 178 µM | – | –
Sc1nnc(-c2cnccn2)n1/N=C/c1ccccc1 | 52.4 µM | 95.2 µM | – | –
Sc1nnc(-c2cnccn2)n1/N=C/c1ccc(Cl)cc1 | 39.8 µM | 198 µM | – | –
S=C(Nc1ccc2ccccc2c1)Nn1c(S)nnc1-c1cnccn1 | 75.9 µM | 336 µM | – | –
O=C1O[C@H]([C@@H](O)CO)C(O)=C1O [ASCORBIC ACID] | 14 µM | – | – | –
S=C(Nc1ccccc1)Nn1c(S)nnc1-c1cnccn1 | 58.8 µM | – | inactive | –
Sc1nnc(-c2cnccn2)n1/N=C/c1ccc(Cl)cc1Cl | 81.2 µM | 241 µM | – | –
S=C(Nc1ccc(Cl)c(Cl)c1)Nn1c(S)nnc1-c1cnccn1 | 81.2 µM | 229 µM | – | –
CN(C)c1ccc(/C=N/n2c(S)nnc2-c2cnccn2)cc1 | 14 µM | 113 µM | – | –
Oc1ccc(/C=N/n2c(S)nnc2-c2cnccn2)cc1 | 58.9 µM | 79 µM | – | Non-Toxic
S=C(Nc1ccc(Cl)cc1)Nn1c(S)nnc1-c1cnccn1 | 75.9 µM | – | inactive | –
Fc1ccc(NC(=S)Nn2c(S)nnc2-c2cnccn2)c(F)c1 | 58.9 µM | 176 µM | – | –
Oc1ccccc1/C=N/n1c(S)nnc1-c1cnccn1 | 75.9 µM | 102 µM | – | –
Fc1ccc(/C=N/n2c(S)nnc2-c2cnccn2)cc1 | 58.8 µM | 382 µM | – | –
N#Cc1ccc(/C=N/n2c(S)nnc2-c2cnccn2)cc1 | 47.8 µM | 99 µM | – | –
Oc1ccc(/C=N/n2c(S)nnc2-c2cnccn2)c(O)c1 | 75.9 µM | 106 µM | – | –

— ChEMBL document CHEMBL4052753, “Antileishmanial potential of fused 5-(pyrazin-2-yl)-4H-1,2,4-triazole-3-thiols: Synthesis, biological evaluations and computational studies” (Bioorg Med Chem Lett, 2017)
